The results in this text go back to patent publication US20050208463A1, “Method of screening drug” (priority 2001, published 2005).

The test system of experiment [1] is Lrp-like protein. Kind of experiment: Gel filtration analysis of changes in assemblies of the Lrp-like protein on mixing with potential ligands. Format: biochemical, Pyrococcus sp. OT3. The conditions noted are these: for change in gel filtration profile of the Lrp-like protein (peak increased): protein monomer approximately 100 μM, at least 30 minutes at room temperature, UV 220 nm. As for the experimental part:
Possible changes in assemblies of the Lrp-like protein induced by interaction with amino acids and metabolic intermediates were analyzed in solution using gel filtration.
Gel filtration was carried out with the flow rate […], using a matrix (Protein Pak 125, 7.8×300 mm, Waters) and 50 mM Tris-HCl buffer (pH 7.0) containing 300 mM sodium chloride. Flow of the proteins was monitored by measuring the UV absorbance at 220 nm (LC Module I plus system, Waters). The Lrp-like protein purified by method 2, i.e., the rigorous method, were dissolved in 50 mM Tris-HCl buffer (pH 7.0) containing 200 mM sodium chloride, and kept at −80° C. until it was diluted by 10-fold with 50 mM Tris-HCl buffer (pH 7.0) containing 300 mM sodium chloride, and mixed with each potential ligand for at least 30 minutes at room temperature (about 25° C.). In the mixture, the monomer concentration of the Lrp-like protein was approximately 100 μM.

The subject of experiment [2] is Lrp-like protein. Kind of experiment: Depolarization of crystals of the Lrp-like protein soaked in amino acid solutions. Format: binding, Pyrococcus sp. OT3. Conditions: crystals soaked in 10 mM amino acid; several hours. As for the experimental part: It has been known that the regularity inside a crystal might be affected, if the structure of the protein changes upon interaction with a ligand which is incorporated from outside the crystal, thereby depolarizing the crystal. Thus, crystals of the Lrp-like protein were soaked into solutions, each containing one of twenty amino acids at the same concentration 10 mM.

As for `O=C(O)C(O)COP(=O)(O)O` (centres unmarked) [3-phosphoglyceric acid], in experiment [1] (metabolic intermediate 10 mM), the “change in gel filtration profile of the Lrp-like protein (peak increased)” value (from here on “change … (peak increased)”) is “no significant effect was observed”.
Turning to `C[C@H](N)C(=O)O` [alanine], in experiment [1] (amino acid 1 mM), the “effect on assembling of the Lrp-like protein concluded from gel filtration” value (shortened to “effect on assembling”) is listed as “accelerate disassembling of the protein” and the “change … (peak increased)” value is listed as “increasing the fourth peak”.
Taken in the same sequence, the figures for `N=C(N)NCCC[C@H](N)C(=O)O` [arginine] were “accelerate disassembling of the protein” and “increasing the fourth peak”.
Take `CC[C@H](C)[C@H](N)C(=O)O` [isoleucine]: the “depolarization of crystals of the Lrp-like protein” value (shortened to “depolarization”) in experiment [2] is recorded as “depolarized”. Further, in experiment [1] (amino acid 1 mM), the “effect on assembling” value is reported as “accelerates assembling of the protein” and the “change … (peak increased)” value is reported as “increasing the second peak”.
Taken in the same sequence, the figures for `CC(C)C[C@H](N)C(=O)O` [leucine] were “depolarized”, “accelerate disassembling of the protein” and “increasing the fourth peak”.
With `O=C(O)CC(O)C(=O)O` (centres unmarked) [malic acid], in experiment [1] (metabolic intermediate 10 mM), the “effect on assembling” value was “intermediate effects” and the “change … (peak increased)” value is recorded as “the third peak increased”.
Consider `CSCC[C@H](N)C(=O)O` [methionine], for which the “depolarization” value in experiment [2] is listed as “depolarized”. For the same compound, in experiment [1] (amino acid 1 mM), the “effect on assembling” value is given as “accelerate disassembling of the protein” and the “change … (peak increased)” value is listed as “increasing the fourth peak”.
As for `O=C(O)CC(=O)C(=O)O` [oxaloacetic acid], in experiment [1] (metabolic intermediate 10 mM), the “effect on assembling” value is “intermediate effects” and the “change … (peak increased)” value is on record as “the third peak increased”.
Take `N[C@@H](Cc1ccccc1)C(=O)O` [phenylalanine]: in experiment [1] (amino acid 1 mM), the “effect on assembling” value is on record as “accelerate disassembling of the protein” and the “change … (peak increased)” value is “increasing the fourth peak”.
As for `CC(=O)C(=O)O` [pyruvic acid], the “change … (peak increased)” value in experiment [1] (metabolic intermediate 10 mM) is “no significant effect was observed”.
Consider `C[C@@H](O)[C@H](N)C(=O)O` [threonine], for which, in experiment [1] (amino acid 1 mM), the “effect on assembling” value is given as “accelerate disassembling of the protein” and the “change … (peak increased)” value is “increasing the fourth peak”.
In the case of `CC(C)[C@H](N)C(=O)O` [valine], the “depolarization” value in experiment [2] is on record as “depolarized”. Also, in experiment [1] (amino acid 1 mM), the “effect on assembling” value is given as “intermediate effects” and the “change … (peak increased)” value was “the third peak increased”.
